Reference: article PMC11642236, “Valorization of Hom Thong Banana Peel (Musa sp., AAA Group) as an Anti-Melanogenic Agent Through Inhibition of Pigmentary Genes and Molecular Docking Study” (International Journal of Molecular Sciences, 2024)
Converted amounts (≈) assume the structure as drawn.

Target: T1, mushroom tyrosinase
T1 construct: gene PPO3; PDB 2Y9X used only for docking
Experiment: L-dopachrome formation, absorbance at […] nm
Format: biochemical, Agaricus bisporus
Details: L-DOPA as substrate (diphenolase); 0.1 M phosphate buffer, room temperature, 30 min

Compound	IC50 Values (mg/mL) / L-DOPA as the Substrate
Oc1cc(O)c2c(c1)O[C@H](c1ccc(O)c(O)c1)[C@@H](O)C2 [Catechin]	6.42 ± 0.45 mg/mL (≈ 22.1 mM)
O=C(O)/C=C/c1ccccc1O [o-Coumaric acid]	4.19 ± 0.15 mg/mL (≈ 25.5 mM)
OC[C@H]1O[C@@H](Oc2ccc(O)cc2)[C@H](O)[C@@H](O)[C@@H]1O [Arbutin, reference compound]	3.44 ± 0.04 mg/mL (≈ 12.6 mM)
COc1cc(/C=C/C(=O)O)ccc1O [Ferulic acid]	3.93 ± 0.09 mg/mL (≈ 20.2 mM)
O=C(/C=C/c1ccc(O)c(O)c1)O[C@H](Cc1ccc(O)c(O)c1)C(=O)O [Rosmarinic acid]	3.62 ± 0.08 mg/mL (≈ 10 mM)
